Structures are written as SMILES. Bridge positions count the residues as written; N and C are the ends. Square brackets hold non-standard residues; d marks the D form. Peptide text beside a SMILES is read from it. * marks the point of attachment. ξ: configuration not given here. Phe(3-CONH2) = NC(=O)c1cccc(C[C@H](N)C(=O)O)c1; Phe(4-COOH) = N[C@@H](Cc1ccc(C(=O)O)cc1)C(=O)O; Bip = N[C@@H](Cc1ccc(-c2ccccc2)cc1)C(=O)O; Phe(3-F) = N[C@@H](Cc1cccc(F)c1)C(=O)O; Phe(3-Me) = Cc1cccc(C[C@H](N)C(=O)O)c1; Bta = N[C@@H](Cc1csc2ccccc12)C(=O)O; Val(3-OH) = CC(C)(O)[C@H](N)C(=O)O; mTyr = N[C@@H](Cc1cccc(O)c1)C(=O)O; 4Pal = N[C@@H](Cc1ccncc1)C(=O)O; Cha = N[C@@H](CC1CCCCC1)C(=O)O; Cit = NC(=O)NCCC[C@H](N)C(=O)O; Ile(3ξ) = CCC(C)[C@H](N)C(=O)O; Thr(3ξ) = CC(O)[C@H](N)C(=O)O; Ala(CN) = N#CC[C@H](N)C(=O)O; Pip = O=C(O)[C@@H]1CCCCN1; dDab = NCC[C@@H](N)C(=O)O; Carboxymethyl = O=C(O)C*; NMeA = CN[C@@H](C)C(=O)O; Nle = CCCC[C@H](N)C(=O)O; Orn = NCCC[C@H](N)C(=O)O; Dab = NCC[C@H](N)C(=O)O; Dap = NC[C@H](N)C(=O)O; Aib = CC(C)(N)C(=O)O; ξC = NC(CS)C(=O)O; Allyl = C=CC*

The term IC50 denotes the concentration that inhibits the measured activity by half.

The target of this assay is T1, PE-labeled human PD-L1-Ig binding to Jurkat cell line over-expressing human PD-1 (Jurkat-PD-1) (Homo sapiens, UniProt Q15116).
T1 construct: expressed in transfected cells; host or cells: Jurkat
T1 sequence (Q15116 25-288): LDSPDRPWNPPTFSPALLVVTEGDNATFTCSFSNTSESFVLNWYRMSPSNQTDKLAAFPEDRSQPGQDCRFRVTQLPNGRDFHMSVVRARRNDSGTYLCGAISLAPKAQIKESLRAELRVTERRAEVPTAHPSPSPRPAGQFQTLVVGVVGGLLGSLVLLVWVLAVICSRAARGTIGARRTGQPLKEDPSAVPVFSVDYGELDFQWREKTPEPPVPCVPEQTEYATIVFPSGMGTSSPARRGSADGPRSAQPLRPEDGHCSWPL
Description: Jurkat-PD-1 Cell Binding High-Content Screening Assay (CBA): Method 1. As to conditions: Jurkat-hPD-1 cells, PE-labeled PD-L1-Ig 20 nM final; read-out: Jurkat HPDL1 PD1 IC50 (uM) (Method 1).
As for `CC(C)C[C@@H]1NC(=O)[C@H](CCN)NC(=O)[C@@H](CC(C)C)NC(=O)[C@H](C)N(C)C(=O)[C@H](CCCNC(=N)N)NC(=O)[C@H](Cc2ccc(-c3ccccc3)cc2)NC(=O)[C@H](C(C)C)NC(=O)[C@H](Cc2c[nH]c3ccccc23)NC(=O)[C@H](CC(=O)O)NC(=O)[C@H](Cc2cccc(O)c2)NC(=O)[C@H](CC(N)=O)NC(=O)CSC[C@@H](C(=O)N[C@@H](C)C(N)=O)NC(=O)[C@H]([C@@H](C)O)NC(=O)[C@H](C(C)C)NC1=O` [Compound 1355] ({CH2CO}-N[mTyr]DWV[Bip]R[NMeA][dL][Dab]LVTCA-NH2; thioether N-14), the IC50 was 0.13 µM.

With `CC(C)C[C@@H]1NC(=O)[C@H](CCN)NC(=O)[C@@H](CC(C)C)NC(=O)[C@H](C)N(C)C(=O)[C@H](CCCN)NC(=O)[C@H](Cc2ccc(-c3ccccc3)cc2)NC(=O)[C@H](C(C)C)NC(=O)[C@H](Cc2c[nH]c3ccccc23)NC(=O)[C@H](CC(=O)O)NC(=O)[C@H](Cc2ccc(O)cc2)NC(=O)[C@H](Cc2ccccc2)NC(=O)CSC[C@@H](C(=O)N[C@@H](C)C(N)=O)NC(=O)[C@H]([C@@H](C)O)NC(=O)[C@H](C(C)C)NC1=O` [Compound 1121] ({CH2CO}-FYDWV[Bip][Orn][NMeA][dL][Dab]LVTCA-NH2; thioether N-14), the IC50 turned out to be 0.06 µM.

Take `Cc1cccc(C[C@@H]2NC(=O)[C@H](CC(=O)O)NC(=O)[C@H](Cc3ccc(OCC(=O)O)cc3)NC(=O)[C@H](CCN)NC(=O)CSC[C@@H](C(=O)N[C@@H](CO)C(N)=O)NC(=O)[C@H](CO)NC(=O)[C@H](C(C)(C)O)NC(=O)[C@H](CC3CCCCC3)NC(=O)[C@H](CCN)NC(=O)[C@@H](CC(C)C)NC(=O)[C@H](C)N(C)C(=O)[C@H](Cc3ccc(C(=O)O)cc3)NC(=O)[C@H](Cc3ccc(-c4ccccc4)cc3)NC(=O)[C@H](Cc3cccc(C(N)=O)c3)NC2=O)c1` [Compound 2178] ({CH2CO}-[Dab]Y(Carboxymethyl)D[Phe(3-Me)][Phe(3-CONH2)][Bip][Phe(4-COOH)][NMeA][dL][Dab][Cha][Val(3-OH)]SCS-NH2; thioether N-14): the IC50 was 0.04 µM.

In the case of `CCCC[C@@H]1NC(=O)[C@H](CCCNC(=N)N)NC(=O)[C@@H](CC(C)C)NC(=O)[C@H](C)N(C)C(=O)[C@H](CCCNC(N)=O)NC(=O)[C@H](Cc2ccc(-c3ccccc3)cc2)NC(=O)[C@H](C(C)C)NC(=O)[C@H](Cc2c[nH]c3ccccc23)NC(=O)[C@H](CC(=O)O)NC(=O)[C@H](Cc2ccc(O)cc2)NC(=O)[C@H](CC(N)=O)NC(=O)CSC[C@@H](C(=O)N[C@@H](C)C(N)=O)NC(=O)[C@H]([C@@H](C)O)NC(=O)[C@H](C(C)C)NC1=O` [Compound 1285] ({CH2CO}-NYDWV[Bip][Cit][NMeA][dL]R[Nle]VTCA-NH2; thioether N-14), the half-maximal inhibitory concentration (IC50) was 0.05 µM.

Take `CC(C)C[C@@H]1NC(=O)[C@H](CCCCN)NC(=O)[C@@H](CC(C)C)NC(=O)[C@H](C)N(C)C(=O)[C@H](CCC(=O)O)NC(=O)[C@H](Cc2ccc(-c3ccccc3)cc2)NC(=O)[C@H](C(C)C)NC(=O)[C@H](Cc2c[nH]c3ccccc23)NC(=O)[C@H](CC(=O)O)NC(=O)[C@H](Cc2ccc(O)cc2)NC(=O)[C@H](Cc2ccncc2)NC(=O)CSC[C@@H](C(=O)N[C@@H](C)C(N)=O)NC(=O)[C@H](C(C)O)NC(=O)[C@H](C(C)C)NC1=O` (stereo partly drawn) [Compound 2057] ({CH2CO}-[4Pal]YDWV[Bip]E[NMeA][dL]KLV[Thr(3ξ)]CA-NH2; thioether N-14): the half-inhibitory concentration (IC50) stood at 0.04 µM.

Turning to `CC[C@H](C)[C@@H]1NC(=O)[C@H](Cc2ccc(-c3ccccc3)cc2)NC(=O)[C@H](C(C)C)NC(=O)[C@H](Cc2c[nH]c3ccccc23)NC(=O)[C@H](CC(=O)O)NC(=O)[C@H](Cc2ccncc2)NC(=O)[C@H](Cc2ccncc2)NC(=O)CSC[C@@H](C(=O)N[C@@H](C)C(N)=O)NC(=O)[C@H]([C@@H](C)O)NC(=O)[C@H](C(C)C)NC(=O)[C@H](CC(C)C)NC(=O)[C@H](CCN)NC(=O)[C@@H](CC(C)C)NC(=O)[C@H](C)N(C)C1=O` [Compound 1410] ({CH2CO}-[4Pal][4Pal]DWV[Bip]I[NMeA][dL][Dab]LVTCA-NH2; thioether N-14), the IC50 was found to be 0.02 µM.

`CC(C)C[C@@H]1NC(=O)[C@H](CCN)NC(=O)[C@@H](CC(C)C)NC(=O)[C@H](C)N(C)C(=O)[C@H](CCC(=O)O)NC(=O)[C@H](Cc2ccc(-c3ccccc3)cc2)NC(=O)[C@H](C(C)C)NC(=O)[C@H](Cc2c[nH]c3ccccc23)NC(=O)[C@H](CC(=O)O)NC(=O)[C@H](Cc2ccncc2)NC(=O)[C@H](CN)NC(=O)CSC[C@@H](C(=O)N[C@@H](C)C(N)=O)NC(=O)[C@H](CO)NC(=O)[C@H](C(C)C)NC1=O` [Compound 1576] ({CH2CO}-[Dap][4Pal]DWV[Bip]E[NMeA][dL][Dab]LVSCA-NH2; thioether N-14): the half-inhibitory concentration (IC50) came to 0.11 µM.

For `CC(C)C[C@@H]1NC(=O)[C@H](CCCN)NC(=O)[C@H](Cc2csc3ccccc23)NC(=O)[C@H](C)N(C)C(=O)[C@H](CCC(=O)O)NC(=O)[C@H](Cc2ccc(-c3ccccc3)cc2)NC(=O)[C@H](C(C)C)NC(=O)[C@H](Cc2c[nH]c3ccccc23)NC(=O)[C@H](CC(=O)O)NC(=O)[C@H](Cc2ccc(O)cc2)NC(=O)[C@H](Cc2ccccc2)NC(=O)CSC[C@@H](C(=O)N[C@@H](C)C(N)=O)NC(=O)[C@H]([C@@H](C)O)NC(=O)[C@H](C(C)C)NC1=O` [Compound 1132] ({CH2CO}-FYDWV[Bip]E[NMeA][Bta][Orn]LVTCA-NH2; thioether N-14), the 50% inhibitory concentration (IC50) was 0.16 µM.

Consider `CC(C)C[C@@H]1NC(=O)[C@H](Cc2c[nH]c3ccccc23)NC(=O)[C@H](CC(=O)O)NC(=O)[C@H](Cc2ccc(O)cc2)NC(=O)[C@H](Cc2ccccc2)NC(=O)CSC[C@@H](C(=O)NCC(N)=O)NC(=O)[C@H](CO)NC(=O)[C@H](C(C)C)NC(=O)[C@H](CC(C)C)NC(=O)[C@H](CC(N)=O)NC(=O)C(C)(C)NC(=O)[C@H](C)N(C)C(=O)[C@H](C(C)C)NC(=O)[C@H](Cc2ccc(-c3ccccc3)cc2)NC1=O` [Compound 1818] ({CH2CO}-FYDWL[Bip]V[NMeA][Aib]NLVSCG-NH2; thioether N-14), for which the 50% inhibitory concentration (IC50) worked out at 0.42 µM.

Take `C=CCOc1ccc(C[C@@H]2NC(=O)[C@H](Cc3ccccc3)NC(=O)CSC[C@@H](C(=O)N[C@@H](C)C(N)=O)NC(=O)[C@H]([C@@H](C)O)NC(=O)[C@H](C(C)C)NC(=O)[C@H](CC(C)C)NC(=O)[C@H](CCCNC(=N)N)NC(=O)[C@@H](CC(C)C)NC(=O)[C@H](C)N(C)C(=O)[C@H](CCCNC(=N)N)NC(=O)[C@H](Cc3ccc(-c4ccccc4)cc3)NC(=O)[C@H](C(C)C)NC(=O)[C@H](Cc3c[nH]c4ccccc34)NC(=O)[C@H](CC(=O)O)NC2=O)cc1` [Compound 1088] ({CH2CO}-FY(Allyl)DWV[Bip]R[NMeA][dL]RLVTCA-NH2; thioether N-14): the IC50 was 0.41 µM.

For the compound `CCC(C)[C@@H]1NC(=O)[C@H](Cc2ccc(-c3ccccc3)cc2)NC(=O)[C@H](C(C)C)NC(=O)[C@H](Cc2c[nH]c3ccccc23)NC(=O)[C@H](CC(=O)O)NC(=O)[C@H](Cc2ccc(O)cc2)NC(=O)[C@H](CC#N)NC(=O)CSCC(C(=O)NCC(=O)O)NC(=O)[C@H](C(C)O)NC(=O)[C@H](C(C)C)NC(=O)[C@H](CC2CCCCC2)NC(=O)[C@H](CCN)NC(=O)[C@@H](CC(C)C)NC(=O)[C@H](C)N(C)C1=O` (stereo partly drawn) [Compound 2218] ({CH2CO}-[Ala(CN)]YDWV[Bip][Ile(3ξ)][NMeA][dL][Dab][Cha]V[Thr(3ξ)][ξC]G-OH; thioether N-14), the half-maximal inhibitory concentration (IC50) turned out to be 0.01 µM.

Take `Cc1cccc(C[C@@H]2NC(=O)[C@H](CC(=O)O)NC(=O)[C@H](Cc3ccc(OCC(=O)O)cc3)NC(=O)[C@H](Cc3ccncc3)NC(=O)CSC[C@@H](C(N)=O)NC(=O)[C@H](CCCN)NC(=O)[C@H](C(C)C)NC(=O)[C@H](CC3CCCCC3)NC(=O)[C@H](CCN)NC(=O)[C@@H](CC(C)C)NC(=O)[C@H](C)N(C)C(=O)[C@H](Cc3ccc(OCC(=O)O)cc3)NC(=O)[C@H](Cc3ccc(-c4ccccc4)cc3)NC(=O)[C@H](Cc3ccc(OCC(=O)O)cc3)NC2=O)c1` [Compound 1662] ({CH2CO}-[4Pal]Y(Carboxymethyl)D[Phe(3-Me)]Y(Carboxymethyl)[Bip]Y(Carboxymethyl)[NMeA][dL][Dab][Cha]V[Orn]C-NH2; thioether N-14): the IC50 is 0.01 µM.

In the case of `CC(C)C[C@@H]1NC(=O)[C@H](CCN)NC(=O)[C@@H](CC(C)C)NC(=O)[C@@H]2CCCCN2C(=O)[C@H](Cc2cnc[nH]2)NC(=O)[C@H](Cc2ccc(-c3ccccc3)cc2)NC(=O)[C@H](C(C)C)NC(=O)[C@H](Cc2c[nH]c3ccccc23)NC(=O)[C@H](CC(=O)O)NC(=O)[C@H](Cc2ccc(O)cc2)NC(=O)[C@H](CC(N)=O)NC(=O)CSC[C@@H](C(=O)N[C@@H](C)C(N)=O)NC(=O)[C@H]([C@@H](C)O)NC(=O)[C@H](C(C)C)NC1=O` [Compound 1381] ({CH2CO}-NYDWV[Bip]H[Pip][dL][Dab]LVTCA-NH2; thioether N-14), the IC50 is 0.03 µM.

As to `CCNC(=O)[C@H](CCN)NC(=O)[C@@H]1CSCC(=O)N[C@@H]([C@@H](C)O)C(=O)N[C@@H](Cc2ccc(OCC(=O)O)cc2)C(=O)N[C@@H](CC(=O)O)C(=O)N[C@@H](Cc2cccc(C)c2)C(=O)N[C@@H](Cc2cccc(F)c2)C(=O)N[C@@H](Cc2ccc(-c3ccccc3)cc2)C(=O)N[C@@H](Cc2ccc(OCC(=O)O)cc2)C(=O)N(C)[C@@H](C)C(=O)N[C@H](CC(C)C)C(=O)N[C@@H](CCN)C(=O)N[C@@H](CC2CCCCC2)C(=O)N[C@@H](C(C)(C)O)C(=O)N[C@@H](CO)C(=O)N1` [Compound 1844] ({CH2CO}-TY(Carboxymethyl)D[Phe(3-Me)][Phe(3-F)][Bip]Y(Carboxymethyl)[NMeA][dL][Dab][Cha][Val(3-OH)]SC[Dab]-NHEt; thioether N-14), the 50% inhibitory concentration (IC50) amounted to 0.02 µM.

With `CC(C)C[C@@H]1NC(=O)[C@H](Cc2c[nH]c3ccccc23)NC(=O)[C@H](CC(=O)O)NC(=O)[C@H](Cc2ccncc2)NC(=O)[C@H](Cc2ccc(OCC(=O)O)cc2)NC(=O)CSC[C@@H](C(=O)N[C@H](CCN)C(N)=O)NC(=O)[C@H]([C@@H](C)O)NC(=O)[C@H](C(C)C)NC(=O)[C@H](CC2CCCCC2)NC(=O)[C@H](CCN)NC(=O)[C@@H](CC(C)C)NC(=O)[C@H](C)N(C)C(=O)[C@H](C(C)C)NC(=O)[C@H](Cc2ccc(-c3ccccc3)cc2)NC1=O` [Compound 1904] ({CH2CO}-Y(Carboxymethyl)[4Pal]DWL[Bip]V[NMeA][dL][Dab][Cha]VTC[dDab]-NH2; thioether N-14), the IC50 was found to be 0.01 µM.

The record behind these values is US20240409585A1, “MACROCYCLIC IMMUNOMODULATORS” (priority 2021, published 2024).
